Measured values from ChEMBL document CHEMBL5308504, “Tm Shift (DSF) assay results for EUbOPEN Chemogenomics Library” (2023).
“And” between values parts separate entries of the source, which are not always exact repeats. Equal entries are not always repeated.

Columns and labels:
[1] = biological target: Fibroblast growth factor receptor 3 (Homo sapiens) (UniProt P22607); conditions: Compound concentration 20.0 uM, Protein concentration 2.0 uM, Result type QC Liability
Description: Thermal Shift Assay. Domain: start/stop: P449-E759

Peregrin (Homo sapiens) = biological target: T1, Peregrin (Homo sapiens) (UniProt P55201); conditions: Compound concentration 20.0 uM, Protein concentration 2.0 uM, Result type QC Liability
T1 sequence (whole entry): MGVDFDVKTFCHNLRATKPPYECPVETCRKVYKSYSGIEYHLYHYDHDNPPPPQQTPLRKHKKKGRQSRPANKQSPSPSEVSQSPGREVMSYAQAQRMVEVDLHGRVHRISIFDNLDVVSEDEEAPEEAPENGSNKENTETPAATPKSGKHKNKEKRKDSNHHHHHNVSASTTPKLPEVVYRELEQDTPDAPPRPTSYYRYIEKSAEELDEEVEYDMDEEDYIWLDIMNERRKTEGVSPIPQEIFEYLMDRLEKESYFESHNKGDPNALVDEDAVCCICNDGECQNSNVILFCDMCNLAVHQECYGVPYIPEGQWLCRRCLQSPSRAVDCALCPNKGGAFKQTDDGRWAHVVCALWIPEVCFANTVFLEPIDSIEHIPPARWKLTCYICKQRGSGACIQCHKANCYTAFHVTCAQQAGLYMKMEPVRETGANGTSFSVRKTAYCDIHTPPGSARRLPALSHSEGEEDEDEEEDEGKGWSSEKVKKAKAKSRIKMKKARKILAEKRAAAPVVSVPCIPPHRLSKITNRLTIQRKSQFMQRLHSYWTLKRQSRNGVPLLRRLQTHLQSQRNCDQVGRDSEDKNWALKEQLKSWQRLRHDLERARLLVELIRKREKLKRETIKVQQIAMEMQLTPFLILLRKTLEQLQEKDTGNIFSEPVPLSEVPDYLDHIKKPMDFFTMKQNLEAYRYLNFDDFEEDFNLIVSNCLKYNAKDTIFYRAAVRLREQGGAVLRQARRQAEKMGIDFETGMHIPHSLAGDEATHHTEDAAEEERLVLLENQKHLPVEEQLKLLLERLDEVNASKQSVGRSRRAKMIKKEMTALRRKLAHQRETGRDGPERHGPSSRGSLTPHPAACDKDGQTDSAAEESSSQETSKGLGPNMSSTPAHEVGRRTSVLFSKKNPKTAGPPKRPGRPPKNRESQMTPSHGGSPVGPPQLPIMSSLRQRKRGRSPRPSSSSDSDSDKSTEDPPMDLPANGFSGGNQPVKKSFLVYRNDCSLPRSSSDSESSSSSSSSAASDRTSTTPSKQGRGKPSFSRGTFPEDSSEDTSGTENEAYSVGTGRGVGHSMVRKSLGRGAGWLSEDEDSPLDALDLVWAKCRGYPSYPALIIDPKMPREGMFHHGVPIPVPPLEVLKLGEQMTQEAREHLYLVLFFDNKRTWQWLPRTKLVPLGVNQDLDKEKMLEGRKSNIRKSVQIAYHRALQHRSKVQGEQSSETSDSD

Sequence of Fibroblast growth factor receptor 3 (Homo sapiens) (P22607 23-806 limits assumed): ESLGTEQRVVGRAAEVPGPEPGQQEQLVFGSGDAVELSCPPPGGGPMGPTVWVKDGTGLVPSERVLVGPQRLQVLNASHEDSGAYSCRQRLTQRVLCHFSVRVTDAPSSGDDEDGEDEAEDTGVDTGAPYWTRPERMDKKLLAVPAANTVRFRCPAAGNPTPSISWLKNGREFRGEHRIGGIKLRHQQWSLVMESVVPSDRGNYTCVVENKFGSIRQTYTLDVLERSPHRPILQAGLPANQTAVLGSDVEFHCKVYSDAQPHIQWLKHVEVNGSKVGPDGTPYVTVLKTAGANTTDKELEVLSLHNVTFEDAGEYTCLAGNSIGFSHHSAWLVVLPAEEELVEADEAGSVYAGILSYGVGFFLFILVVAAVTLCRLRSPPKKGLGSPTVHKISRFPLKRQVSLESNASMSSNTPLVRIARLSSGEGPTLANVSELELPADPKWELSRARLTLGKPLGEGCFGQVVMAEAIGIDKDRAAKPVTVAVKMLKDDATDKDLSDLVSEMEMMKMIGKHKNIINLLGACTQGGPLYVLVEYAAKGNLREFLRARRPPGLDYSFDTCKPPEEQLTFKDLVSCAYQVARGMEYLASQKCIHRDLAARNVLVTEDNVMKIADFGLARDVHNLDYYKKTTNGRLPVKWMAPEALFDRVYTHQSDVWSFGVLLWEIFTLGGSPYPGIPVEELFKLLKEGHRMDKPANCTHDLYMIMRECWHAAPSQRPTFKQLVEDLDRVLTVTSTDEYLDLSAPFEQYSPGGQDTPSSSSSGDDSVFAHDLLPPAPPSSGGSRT

| Compound | ΔTm [1] | ΔTm (Peregrin (Homo sapiens)) |
| --- | --- | --- |
| Cc1ccc2c(NS(=O)(=O)c3ccccc3Cl)cccc2c1Oc1ncccc1-c1ccnc(N[C@H]2CCCNC2)n1 | 0.02 °C | -3.81 °C |
| CCCN1C(=O)c2ccc(Cl)cc2Nc2ncccc21 | 1.35 °C | -3.34 °C |
| O=C1Nc2nc(-c3c(O)cccc3OCC3CC3)cc([C@@H]3CCCNC3)c2CO1 | 1.04 °C | -2.51 °C |
| Cc1c(-c2c(F)cc(C(N)=O)c3[nH]c4c(c23)CC[C@H](C(C)(C)O)C4)cccc1-n1c(=O)c2cccc(F)c2n(C)c1=O | -3.27 °C | -3.49 °C |
| COc1cc(Oc2nc(-c3ccc(NC(=O)C4CCOC4)cc3)nn3c(C)nc(C)c23)cc(OC)c1OC (configuration not stated) | 1.34 °C | -1.59 °C |
| CCc1nc(-c2cccc(C)c2)c(-c2ccncc2)s1 | 0.65 °C | -0.75 °C |
| CN1CCc2cc(Nc3ncc(C(F)(F)F)c(NCc4cc[nH]n4)n3)ccc2C1 | 8.22 °C | -1.01 °C |
| COc1cccc(-c2c(C)c(Cc3c(F)cccc3C(F)(F)F)c3n(c2=O)[C@@H]([C@@H](N)c2ccccc2)CS3)c1F | -2.84 °C | -4.1 °C |
| CC[C@H](CO)Nc1nc(Nc2cccc(-c3ccccn3)c2)c2ncn(C(C)C)c2n1 | 2.78 °C | -2.18 °C |
| COc1c(NC(=O)c2cc3cccc(Oc4ccnc(C(=O)N5CCN(C)CC5)c4)c3n2C)cc(C(C)(C)C)cc1NS(C)(=O)=O | 1.12 °C | -2.38 °C |
| O=C(Cc1ccccc1[N+](=O)[O-])Nc1ccc(-c2ccc(C(O)(C(F)(F)F)C(F)(F)F)cc2F)cc1 | 1.47 °C | 1.8 °C |
| CC(=O)Nc1ncc(CN2CCC[C@H](Cc3cc(C)nc(C)c3)C2)s1 | 1 °C | 0.17 °C |
| O=C(CNC(=O)c1ccc(-c2ccccc2)cc1)NC1CCCc2ccccc21 (configuration not stated) | 0.59 °C | -4.59 °C |
| COc1cc(O)c(C(CC(=O)N2C[C@H](C)C[C@H](C)C2)c2ccc3c(c2)OCO3)c(OC)c1 (some centres not stated) | 0.97 °C | 1.95 °C |
| CC[C@@H](C(=O)OC)n1c(=O)c2ccccc2n(Cc2cn(C)c3cccc(C)c23)c1=O | 1.21 °C | -3.31 °C |
| O=C(Nc1ccc(C(O)(C(F)(F)F)C(F)(F)F)cc1)c1ccc(C(F)(F)F)cc1 | 2.93 °C | 0.72 °C |
| Cc1cc(S(=O)(=O)N2CC(C)(C)c3cc(-c4ccc(C(F)(F)F)cc4)ccc32)ccc1OCC(=O)O | 0.47 °C | -7.85 °C |
| C[C@@H]1CC[C@@]2(OC1)O[C@H]1[C@@H](O)[C@H]3[C@@H]4CC[C@H]5C[C@@H](O[C@@H]6O[C@H](CO)[C@H](O[C@@H]7O[C@H](CO)C(O)[C@H](O[C@@H]8OC[C@@H](O)[C@H](O)[C@H]8O)[C@H]7O[C@@H]7O[C@H](CO)[C@H](O)[C@H](O[C@@H]8O[C@H](CO)[C@@H](O)[C@H](O)[C@H]8O)[C@H]7O)[C@H](O)[C@H]6O)[C@H](O)C[C@]5(C)[C@H]4CC[C@]3(C)[C@H]1[C@@H]2C (some centres not stated) | 0.72 °C | -1.35 °C |
| CC(C)NC(=O)[C@H]1CCC[C@H]1Nc1nc(Nc2ccc(CN(C)C)cc2)ncc1Br | 7.35 °C | -1.84 °C |
| CCc1cc2c(cc1N1CCC(N3CCOCC3)CC1)C(C)(C)c1[nH]c3cc(C#N)ccc3c1C2=O | 0.56 °C | -1 °C |
| Cc1cc2c(-c3ccco3)cnc(N[C@H]3CCN(C)C[C@@H]3C(=O)NC3CCCCC3)c2[nH]c1=O | 1 °C | -1.73 °C |
| CS(=O)(=O)CCNCc1ccc(-c2ccc3ncnc(Nc4ccc(OCc5cccc(F)c5)c(Cl)c4)c3c2)o1 | 0.79 °C | -1.41 °C |
| CN(C)C(=O)Cn1cc(-c2ccc(-c3cncc4ccccc34)cc2)cn1 | 0.29 °C | -2.52 °C |
| C=CC[C@@H]1/C=C(\C)C[C@H](C)C[C@H](OC)[C@H]2O[C@@](O)(C(=O)C(=O)N3CCCC[C@H]3C(=O)O[C@H](/C(C)=C/[C@@H]3CC[C@@H](O)[C@H](OC)C3)[C@H](C)[C@@H](O)CC1=O)[C@H](C)C[C@@H]2OC | 0.4 °C | -3.28 °C |
| COCCNC1CCC(Nc2cc(-c3csc(NCC4(C#N)CCOCC4)n3)c(Cl)cn2)CC1 (configuration not stated) | 0.74 °C | 0.03 °C |
| Clc1ccccc1C(c1ccccc1)(c1ccccc1)n1cccn1 | 0.25 °C | -3.65 °C |

| Compound | ΔTm [1] | ΔTm (Peregrin (Homo sapiens)) |
| --- | --- | --- |
| CN1CC(=O)N(C)c2cnc(Nc3ccc(NC(=O)Nc4cccc(C(=O)O)c4)cc3)nc21 | 1.19 °C | -0.81 °C |
| O=C(Nc1ccc(OC(F)(F)Cl)cc1)c1cnc(N2CC[C@@H](O)C2)c(-c2cc[nH]n2)c1 | 0.66 °C | -3.77 °C |
| NCC1CCC(CNc2nc(NCc3ccccc3OC(F)(F)F)ncc2[N+](=O)[O-])CC1 (configuration not stated) | 0.5 °C | 0.06 °C |
| Cc1cc(-c2cc3ncccc3c(OC[C@H]3CCCNC3)n2)ccc1N(C)C | 3.21 °C | -1.71 °C |
| Cc1cccc(CC(=O)N2CCc3c2ccc(-c2cn(C)c4ncnc(N)c24)c3F)n1 | -0.88 °C | -2.12 °C |
| O=C(O)c1cc(-c2ccccc2)ccc1O | 0.62 °C | -0.36 °C |
| Cc1cnc(-c2cnc(NCCNc3ccc(C#N)cn3)nc2-c2ccc(Cl)cc2Cl)[nH]1 | 1.41 °C | -2.19 °C |
| COc1cc(C)c(S(=O)(=O)N(C)CCC(=O)N[C@H]2CC[C@@H](N3CCC4CN(C)CC4C3)CC2)c(C)c1 (some centres not stated) | 1.1 °C | -3.59 °C |
| CC(=O)c1c(C)c2cnc(Nc3ccc(N4CCNCC4)cn3)nc2n(C2CCCC2)c1=O | 0.56 °C and 0.64 °C | -1.97 °C and -1.31 °C |
| Cn1c(Nc2c(Cl)cccc2Cl)nc2ccc3nc[nH]c(=O)c3c21 | 1.31 °C | -0.59 °C |
| Cc1csc(S(=O)(=O)N(CC(C)C)c2cc3c(cc2OCc2ccc(C(=O)O)cc2)CCC3)n1 | 0.12 °C | -3.17 °C |
| FC(F)(F)c1ccc(CNc2ccc(Cc3c[nH]c4ncc(Cl)cc34)cn2)cn1 | 3.63 °C | -0.43 °C |
| CCOC(=O)Nc1ccc2c(c1)N(C(=O)CN(CC)CC)c1ccccc1CC2 | 0.66 °C | -1.21 °C |
| COc1c(OCCCN2CCOCC2)ccc2c1N=C(NC(=O)c1cnc(N)nc1)N1CCN=C21 | 0.63 °C | -0.93 °C |
| CN(C)C/C=C/C(=O)Nc1cccc(S(=O)(=O)N2CCC(NC(=O)c3n[nH]cc3NC(=O)c3c(Cl)cc(Cl)cc3Cl)CC2)c1 | 6.8 °C | -0.81 °C |
| COC[C@@H](C)N[C@H]1CC[C@H](Nc2cc(-c3cccc(NCC4(C#N)CCOCC4)n3)c(Cl)cn2)CC1 | 0.39 °C | -1.02 °C |
| CCN1CCN(Cc2ccc(Nc3ncc(F)c(-c4cc(F)c5nc(C)n(C(C)C)c5c4)n3)nc2)CC1 | 3.23 °C | -1.26 °C |
| CS(=O)(=O)c1ccc(-c2cnc(N)c(C(=O)Nc3ccccc3)n2)cc1 | 1.51 °C | -1.36 °C |
| Nc1nccc(-c2c(-c3ccc(F)cc3)ncn2C2CCN(Cc3ccon3)CC2)n1 | 0.95 °C | -1.77 °C |
| Nc1nc(-c2nn(Cc3ccccc3F)c3ncccc23)ncc1C1CC1 | 1.14 °C | -2.28 °C |
| O=C1COc2cc(C(=O)N(Cc3ccc(C(=O)Nc4ccncn4)cc3)C3CC3)ccc2N1 | 0.74 °C | -0.77 °C |
| COCCc1ccc(-c2c(C)nc3c(N4CCOCC4)ccnn23)cn1 | 1.27 °C | -2.19 °C |
| Cc1sc(C(=O)c2cncnc2N[C@@H]2C[C@H](COS(N)(=O)=O)[C@@H](O)C2)cc1[C@@H]1NCCc2ccc(Cl)cc21 | 0.36 °C | -2.76 °C |
| Cc1[nH]c2c(N3CCCCC3)c(-c3ccccc3)nn2c(=O)c1-c1ccc(O)cc1 | 0.67 °C | -2.87 °C |
| CCCNc1ccc2ncc(-c3ccncc3)n2n1 | 3.37 °C | 0.26 °C |
